The text below walks through data of patent US6127382A, “Amines substituted with a tetrahydroquinolinyl group an aryl or heteroaryl group and an alkyl group, having retinoid-like biological activity” (Allergan Sales, Inc., priority 1999, dated 2000).

Bounds are passed on as bounds.

For the experiment, the target named is T1, RARβ (Homo sapiens, UniProt P10826).
T1 sequence (P10826 1-448 isoform P10826-2): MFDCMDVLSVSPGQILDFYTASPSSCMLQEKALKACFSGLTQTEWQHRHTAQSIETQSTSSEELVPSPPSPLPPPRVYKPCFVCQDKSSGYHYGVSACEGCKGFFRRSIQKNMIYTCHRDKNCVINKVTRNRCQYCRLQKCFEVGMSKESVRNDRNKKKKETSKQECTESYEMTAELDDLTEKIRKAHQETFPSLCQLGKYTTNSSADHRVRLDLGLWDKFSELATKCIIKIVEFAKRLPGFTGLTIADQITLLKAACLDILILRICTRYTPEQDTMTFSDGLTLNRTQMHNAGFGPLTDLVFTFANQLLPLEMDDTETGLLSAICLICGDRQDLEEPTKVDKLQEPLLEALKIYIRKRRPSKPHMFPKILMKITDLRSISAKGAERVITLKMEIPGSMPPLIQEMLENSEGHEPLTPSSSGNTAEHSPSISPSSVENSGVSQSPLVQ
Description: ligand binding assay, RARβ. To be noted: read-out: RAR Bind Ki β. An excerpt: Other assays described below, measure the ability of the compounds of the present invention to bind to, and/or activate various retinoid receptor subtypes. When in these assays a compound binds to a given receptor subtype and activates the transcription of a reporter gene through that subtype, then the compound is considered an agonist of that receptor subtype. […] In the below described assays the ability of the compounds to bind to RARα, RARβ, RARγ, RXRα, RXRβ and RXRγ receptors, and the ability or inability of the compounds to activate transcription of a reporter gene through these receptor subtypes can be tested. […] However, some of the compounds of the invention may behave as retinoid antagonists or partial antagonists and/or as inverse agonists. Because of the complex distribution of the different retinoid receptors in various organs of the mammalian body partial agonists and partial antagonists and compounds which have the characteristics of both may lend themselves to particularly useful therapeutic applications and may avoid serious side effects of conventional retinoid drugs.
A holoreceptor transactivation assay and a ligand binding assay which measure the antagonist/agonist like activity of the compounds of the invention, or their ability to bind to the several retinoid receptor subtypes, respectively, are described in published PCT Application No. WO WO93/11755 (particularly on pages 30-33 and 37-41) published on Jun. 24, 1993, the specification of which is also incorporated herein by reference. A detailed experimental procedure for holoreceptor transactivations has been described by Heyman et al. Cell 68, 397-406, (1992); Allegretto et al. J. Biol. Chem. 268, 26625-26633, and Mangelsdorf et al. The Retinoids: Biology, Chemistry and Medicine, pp 319-349, Raven Press Ltd., New York, which are expressly incorporated herein by reference. The results obtained in this assay are expressed in EC50 numbers, as they are also in the chimeric receptor transactivation assay. The results of ligand binding assay are expressed in Kd numbers. (See Cheng et al. Biochemical Pharmacology Vol. 22 pp 3099-3108, expressly incorporated herein by reference.)
Table 1 discloses the activity of certain exemplary compounds of the invention in the above-described chimeric receptor transactivation assay, holoreceptor transactivation assay and a ligand binding assays. Particularly, the transactivation data pertaining to RAR receptors were obtained in the chimeric assay, and the data pertaining to transactivation of RXR receptors were obtained in the holoreceptor transactivation assay.
As to `CCN(c1ccc(C(=O)O)cc1)c1cc2c(cc1C)N(C(C)C)CCC2(C)C` [Compound 24, 4-[(1-Isopropyl-4,4,7-trimethyl-1,2,3,4-tetrahydroquinolin-6-yl)ethylamino]benzoic acid], the Ki was > 10 µM. Take `Cc1cc2c(cc1N(C)c1ccc(C(=O)O)cc1)C(C)(C)CCN2C(C)C` [Compound 22, 4-[(1-Isopropyl-4,4,7-trimethyl-1,2,3,4-tetrahydroquinolin-6-yl)methylamino]benzoic acid]: the Ki was > 10 µM. For `CC(C)CCN(c1ccc(C(=O)O)cc1)c1ccc2c(c1)C(C)(C)CCN2C(C)C` [Compound 14, 4-[(1-Isopropyl-4,4-dimethyl-1,2,3,4-tetrahydroquinolin-6-yl)(3-methylbutyl)amino]-benzoic Acid], the Ki is 7.7 µM. In the case of `CC(C)N1CCC(C)(C)c2ccc(N(CC3CC3)c3ccc(C(=O)O)cc3)cc21` [Compound 40, 4-[(1-Isolpropyl-4,4-dimethyl-1,2,3,4-tetrahydroquinolin-7-yl)(cylopropylmethyl)amino]benzoic acid] it was 24 µM. On to `CC(C)N1CCC(C)(C)c2cc(N(C)c3ccc(C(=O)O)cc3)ccc21` [Compound 10, 4-[(1-Isopropyl-4,4-dimethyl-1,2,3,4-tetrahydroquinolin-6-yl)methylamino]benzoic Acid], for which the Ki was > 10 µM. Turning to `CCN(c1ccc(C(=O)O)cc1)c1ccc2c(c1)N(C(C)C)CCC2(C)C` [Compound 38, 4-[(1-Isopropyl-4,4-dimethyl-1,2,3,4-tetrahydroquinolin-7-yl)ethylamino]benzoic acid], the Ki is > 10 µM.

Regarding `CCN(c1ccc(C(=O)O)cc1)c1ccc2c(c1)C(C)(C)CC(=O)N2C(C)C` [Compound 6, 4-[(1-Isopropyl-4,4-dimethyl-2-oxo-1,2,3,4-tetrahydroquinolin-6-yl)ethylamino]benzoic Acid], the Ki was > 30 µM. For the molecule `Cc1cc2c(cc1N(CC1CC1)c1ccc(C(=O)O)cc1)C(C)(C)CCN2C(C)C` [Compound 26, 4-[(1-Isopropyl-4,4,7-trimethyl-1,2,3,4-tetrahydro-quinolin-6-yl)(cyclopropylmethyl)amino]benzoic acid], the Ki came to 11 µM.

For `CC(C)CN(c1ccc(C(=O)O)cc1)c1ccc2c(c1)N(C(C)C)CCC2(C)C` [Compound 39, 4-[(1-Isopropyl-4,4-dimethyl-1 2,3,4-tetrahydroquinolin-7-yl)isobutylamino]benzoic acid], the Ki is > 10 µM. On to `CCN(c1ccc(C(=O)O)cc1)c1ccc2c(c1)C(C)(C)CCN2C(C)C` [Compound 12, 4-[(1-Isopropyl-4,4-dimethyl-1,2,3,4-tetrahydroquinolin-6-yl)ethylamino]benzoic acid], for which the Ki worked out at 7.9 µM.

In general, Ki refers to a measure of affinity in units of concentration, obtained from inhibition or displacement.
